From patent publication US5358951A, “Angiotensin II receptor blocking 2, 3, 6 substituted quinazolinones” (American Cyanamid Company, priority 1993, dated 1994)

Test system: vasopressor response of angiotensin II
Assay: AII Challenge: antagonism of angiotensin II vasopressor response;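 as to Response Average Change: post-dose Angiotensin II-evoked rise in systolic blood pressure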
Type: in vivo
Conditions: for inhibition in vivo at 3 mg/kg / inhibition in vivo at 5 mg/kg: Rattus norvegicus; for inhibition in vivo at 3 mg/kg: iv; for inhibition in vivo at 5 mg/kg: po
Text: Conscious Male Okamoto-Aoki SHR, 16-20 weeks old, weighing approximately 330 g are purchased from Charles River Labs (Wilmington, Mass.). Conscious rats are restrained in a supine position with elastic tape. The area at the base of the tail is locally anesthetized by subcutaneous infiltration with 2% procaine. The ventral caudal artery and vein are isolated, and a cannula made of polyethylene (PE) 10-20 tubing (fused together by heat) is passed into the lower abdominal aorta and vena cava, respectively. The cannula is secured, heparinized (1,000 I.U./ml), sealed and the wound is closed. The animals are placed in plastic restraining cages in an upright position. The cannula is attached to a Statham P23 Db pressure transducer, and pulsatile blood pressure is recorded to 10-15 minutes with a Gould Brush recorder. (Chan et al., (Drug Development Res., 18:75-94, 1989). Angiotensin II (human sequence, Sigma Chem. Co., St. Louis, Mo.) of 0.05 and 0.1 ug/kg i.v. is injected into all rats (predosing response). Then a test compound, vehicle or a known angiotensin II antagonist is administered i.v., i.p. or orally to each set of rats. The two doses of angiotensin II are given to each rat again at 30, 60, 90, 120, 180, 240 and 300 minutes post dosing the compound or vehicle. The vasopressor response of angiotensin II is measured for the increase in systolic blood pressure in mmHg. The percentage of antagonism or blockade of the vasopressor response of angiotensin II by a compound is calculated using the vasopressor response (increase in systolic blood pressure) of angiotensin II of each rat predosing the compound as 100%.

[1] = 3 mg/kg I.V., AII 0.05 mcg/kg IV, 30 min post dose
[2] = 3 mg/kg I.V., AII 0.05 mcg/kg IV, 60 min post dose
[3] = 3 mg/kg I.V., AII 0.05 mcg/kg IV, 90 min post dose
[4] = 3 mg/kg I.V., AII 0.05 mcg/kg IV, 120 min post dose
[5] = 3 mg/kg I.V., AII 0.05 mcg/kg IV, 180 min post dose
[6] = 3 mg/kg I.V., AII 0.1 mcg/kg IV, 30 min post dose
[7] = 3 mg/kg I.V., AII 0.1 mcg/kg IV, 60 min post dose
[8] = 3 mg/kg I.V., AII 0.1 mcg/kg IV, 90 min post dose
[9] = 3 mg/kg I.V., AII 0.1 mcg/kg IV, 120 min post dose
[10] = 3 mg/kg I.V., AII 0.1 mcg/kg IV, 180 min post dose
[11] = 5 mg/kg P.O., AII 0.05 mcg/kg IV, 30 min post dose
[12] = 5 mg/kg P.O., AII 0.05 mcg/kg IV, 60 min post dose
[13] = 5 mg/kg P.O., AII 0.05 mcg/kg IV, 90 min post dose
[14] = 5 mg/kg P.O., AII 0.05 mcg/kg IV, 120 min post dose
[15] = 5 mg/kg P.O., AII 0.05 mcg/kg IV, 180 min post dose
[16] = 5 mg/kg P.O., AII 0.05 mcg/kg IV, 240 min post dose
[17] = 5 mg/kg P.O., AII 0.05 mcg/kg IV, 300 min post dose
[18] = 5 mg/kg P.O., AII 0.1 mcg/kg IV, 30 min post dose
[19] = 5 mg/kg P.O., AII 0.1 mcg/kg IV, 60 min post dose
[20] = 5 mg/kg P.O., AII 0.1 mcg/kg IV, 90 min post dose
[21] = 5 mg/kg P.O., AII 0.1 mcg/kg IV, 120 min post dose
[22] = 5 mg/kg P.O., AII 0.1 mcg/kg IV, 180 min post dose
[23] = 5 mg/kg P.O., AII 0.1 mcg/kg IV, 240 min post dose
[24] = 5 mg/kg P.O., AII 0.1 mcg/kg IV, 300 min post dose
[25] = 0.5 h, 3 mg/kg I.V., AII 0.05 mcg/kg IV, 30 min post dose
[26] = 0.5 h, 3 mg/kg I.V., AII 0.1 mcg/kg IV, 30 min post dose
[27] = 1 h, 3 mg/kg I.V., AII 0.05 mcg/kg IV, 60 min post dose
[28] = 1 h, 3 mg/kg I.V., AII 0.1 mcg/kg IV, 60 min post dose
[29] = 2 h, 3 mg/kg I.V., AII 0.05 mcg/kg IV, 120 min post dose
[30] = 2 h, 3 mg/kg I.V., AII 0.1 mcg/kg IV, 120 min post dose
[31] = 3 h, 3 mg/kg I.V., AII 0.05 mcg/kg IV, 180 min post dose
[32] = 3 h, 3 mg/kg I.V., AII 0.1 mcg/kg IV, 180 min post dose
[33] = […], 3 mg/kg I.V., AII 0.05 mcg/kg IV, 90 min post dose
[34] = […], 3 mg/kg I.V., AII 0.1 mcg/kg IV, 90 min post dose
[35] = 0.5 h, 5 mg/kg P.O., AII 0.05 mcg/kg IV, 30 min post dose
[36] = 0.5 h, 5 mg/kg P.O., AII 0.1 mcg/kg IV, 30 min post dose
[37] = 1 h, 5 mg/kg P.O., AII 0.05 mcg/kg IV, 60 min post dose
[38] = 1 h, 5 mg/kg P.O., AII 0.1 mcg/kg IV, 60 min post dose
[39] = 2 h, 5 mg/kg P.O., AII 0.05 mcg/kg IV, 120 min post dose
[40] = 2 h, 5 mg/kg P.O., AII 0.1 mcg/kg IV, 120 min post dose
[41] = 3 h, 5 mg/kg P.O., AII 0.05 mcg/kg IV, 180 min post dose
[42] = 3 h, 5 mg/kg P.O., AII 0.1 mcg/kg IV, 180 min post dose
[43] = 4 h, 5 mg/kg P.O., AII 0.05 mcg/kg IV, 240 min post dose
[44] = 4 h, 5 mg/kg P.O., AII 0.1 mcg/kg IV, 240 min post dose
[45] = 5 h, 5 mg/kg P.O., AII 0.05 mcg/kg IV, 300 min post dose
[46] = 5 h, 5 mg/kg P.O., AII 0.1 mcg/kg IV, 300 min post dose
[47] = […], 5 mg/kg P.O., AII 0.05 mcg/kg IV, 90 min post dose
[48] = […], 5 mg/kg P.O., AII 0.1 mcg/kg IV, 90 min post dose

SMILES: CCCCc1nc2ccc([C@@H]3C[C@H]4CCCN4O3)cc2c(=O)n1Cc1ccc(-c2ccccc2-c2nnn[nH]2)cc1 (racemic) [Example 57, Cis-(+/-)-2-Butyl-6-(hexahydropyrrolo[1,2-b]isoxazol-2-yl)-3-[[2'-(1H-tetrazol-5-yl)[1,1'-biphenyl]-4-yl]methyl]-4(3H)-quinazolinone]
- Response Average Change [1]: 12.5 mmHg
- Response Average Change [2]: 22.5 mmHg
- Response Average Change [3]: 20 mmHg
- Response Average Change [4]: 17.5 mmHg
- Response Average Change [5]: 36 mmHg
- Response Average Change [6]: 7.5 mmHg
- Response Average Change [7]: 15 mmHg
- Response Average Change [8]: 20 mmHg
- Response Average Change [9]: 37.5 mmHg
- Response Average Change [10]: 44 mmHg
- Response Average Change [11]: 31.5 mmHg
- Response Average Change [12]: 25 mmHg
- Response Average Change [13]: 32.5 mmHg
- Response Average Change [14]: 20 mmHg
- Response Average Change [15]: 20 mmHg
- Response Average Change [16]: 20 mmHg
- Response Average Change [17]: 22.5 mmHg
- Response Average Change [18]: 22.5 mmHg
- Response Average Change [19]: 29 mmHg
- Response Average Change [20]: 29.5 mmHg
- Response Average Change [21]: 25 mmHg
- Response Average Change [22]: 41.5 mmHg
- Response Average Change [23]: 40 mmHg
- Response Average Change [24]: 42.5 mmHg
- inhibition in vivo at 3 mg/kg [25]: 67%
- inhibition in vivo at 3 mg/kg [26]: 81%
- inhibition in vivo at 3 mg/kg [27]: 40%
- inhibition in vivo at 3 mg/kg [28]: 63%
- inhibition in vivo at 3 mg/kg [29]: 57%
- inhibition in vivo at 3 mg/kg [30]: 17%
- inhibition in vivo at 3 mg/kg [31]: 11%
- inhibition in vivo at 3 mg/kg [32]: 2%
- inhibition in vivo at 3 mg/kg [33]: 47%
- inhibition in vivo at 3 mg/kg [34]: 50%
- inhibition in vivo at 5 mg/kg [35]: 26%
- inhibition in vivo at 5 mg/kg [36]: 47%
- inhibition in vivo at 5 mg/kg [37]: 41%
- inhibition in vivo at 5 mg/kg [38]: 32%
- inhibition in vivo at 5 mg/kg [39]: 53%
- inhibition in vivo at 5 mg/kg [40]: 41%
- inhibition in vivo at 5 mg/kg [41]: 53%
- inhibition in vivo at 5 mg/kg [42]: 2%
- inhibition in vivo at 5 mg/kg [43]: 53%
- inhibition in vivo at 5 mg/kg [44]: 6%
- inhibition in vivo at 5 mg/kg [45]: 47%
- inhibition in vivo at 5 mg/kg [46]: 0%
- inhibition in vivo at 5 mg/kg [47]: 24%
- inhibition in vivo at 5 mg/kg [48]: 31%

SMILES: CCCCc1nc2ccc([C@]3(C)C[C@@H]4CCCN4O3)cc2c(=O)n1Cc1ccc(-c2ccccc2-c2nnn[nH]2)cc1 (relative stereo) [Example 59, Trans-2-Butyl-6-(hexahydro-2-methylpyrrolo[1,2-b]isoxazol-2-yl)-3-[[2'-(1H-tetrazol-5-yl)[1,1'-biphenyl]-4-yl]methyl]-4(3H)-quinazolinone]
- Response Average Change [1]: 17.5 mmHg
- Response Average Change [2]: 9 mmHg
- Response Average Change [3]: 18.5 mmHg
- Response Average Change [4]: 9.5 mmHg
- Response Average Change [5]: 20 mmHg
- Response Average Change (3 mg/kg I.V., AII 0.05 mcg/kg IV, 240 min post dose): 18.5 mmHg
- Response Average Change [6]: 21 mmHg
- Response Average Change [7]: 23.5 mmHg
- Response Average Change [8]: 17.5 mmHg
- Response Average Change [9]: 12.5 mmHg
- Response Average Change [10]: 22.5 mmHg
- Response Average Change (3 mg/kg I.V., AII 0.1 mcg/kg IV, 240 min post dose): 27.5 mmHg
- Response Average Change [11]: 19 mmHg
- Response Average Change [12]: 12.5 mmHg
- Response Average Change [13]: 17.5 mmHg
- Response Average Change [14]: 24 mmHg
- Response Average Change [15]: 18.5 mmHg
- Response Average Change [16]: 12.5 mmHg
- Response Average Change [17]: 12.5 mmHg
- Response Average Change [18]: 22.5 mmHg
- Response Average Change [19]: 12.5 mmHg
- Response Average Change [20]: 17.5 mmHg
- Response Average Change [21]: 17.5 mmHg
- Response Average Change [22]: 14 mmHg
- Response Average Change [23]: 10 mmHg
- Response Average Change [24]: 10 mmHg
- inhibition in vivo at 3 mg/kg [25]: 49%
- inhibition in vivo at 3 mg/kg [26]: 49%
- inhibition in vivo at 3 mg/kg [27]: 74%
- inhibition in vivo at 3 mg/kg [28]: 43%
- inhibition in vivo at 3 mg/kg [29]: 72%
- inhibition in vivo at 3 mg/kg [30]: 70%
- inhibition in vivo at 3 mg/kg [31]: 41%
- inhibition in vivo at 3 mg/kg [32]: 45%
- inhibition in vivo at 3 mg/kg (4 h, 3 mg/kg I.V., AII 0.05 mcg/kg IV, 240 min post dose): 46%
- inhibition in vivo at 3 mg/kg (4 h, 3 mg/kg I.V., AII 0.1 mcg/kg IV, 240 min post dose): 33%
- inhibition in vivo at 3 mg/kg [33]: 46%
- inhibition in vivo at 3 mg/kg [34]: 57%
- inhibition in vivo at 5 mg/kg [35]: 49%
- inhibition in vivo at 5 mg/kg [36]: 49%
- inhibition in vivo at 5 mg/kg [37]: 67%
- inhibition in vivo at 5 mg/kg [38]: 72%
- inhibition in vivo at 5 mg/kg [39]: 36%
- inhibition in vivo at 5 mg/kg [40]: 60%
- inhibition in vivo at 5 mg/kg [41]: 51%
- inhibition in vivo at 5 mg/kg [42]: 68%
- inhibition in vivo at 5 mg/kg [43]: 67%
- inhibition in vivo at 5 mg/kg [44]: 77%
- inhibition in vivo at 5 mg/kg [45]: 67%
- inhibition in vivo at 5 mg/kg [46]: 77%
- inhibition in vivo at 5 mg/kg [47]: 53%
- inhibition in vivo at 5 mg/kg [48]: 60%
